In patent US11137396B2, “In vitro assays for assessing cell aging” (METAFORA BIOSYSTEMS, priority 2014, dated 2021):

System: hMSCs derived from ES cells
Experiment: XPR1/Glut1 ratio in senescence accelerated-model induced by mitomycin C (RBD labelling, flow cytometry)
Assay type: cell-based, human
Conditions: 1 or 10 μg/mL MMC for 3 hours, then 4 additional days; ES-derived hMSC; FIG. 5
Experimental: 80% confluent hMSCs derived from ES cells were treated for 3 hours with 1 or 10 μg/mL of mitomycin C (MMC, Sigma) or none (control cells). After the pulse of MMC, the cells were washed twice with PBS, detached with TrypLE Express for 5 minutes à 37° C. and re-plated in flasks for 4 additional days at the end of which the cells were detached for RBD labelling and the doubling time (h) was determined by counting.
3·10^4 cells were used for each binding and were transferred into a 96-well V-shape microplate. RBDs were premixed pairwise (Glut1.RBD.mouseFc and Xeno.RBD.rabbitFc) in culture medium containing 0.1% sodium azide and 1 mM EDTA. RBDs were added to hMSCs and incubated at 37° C. for 20 minutes. Cells were washed once with buffer B (PBS/2% FCS/0.1% sodium azide/1 mM EDTA) and then incubated with Alexa Fluor 647 goat anti-rabbit IgG (Life Technologies, 1/1 000) and R-PE goat anti-mouse IgG1 (Life technologies, 1/100) in buffer B. After 30 minutes of incubation at 4° C. in the dark, the cells were washed twice and resuspended in buffer B before flow cytometry analysis. Fluorescent signals were acquired on a FACSVerse flow cytometer (BD Biosciences) with 405, 488 and 640 nm excitation, and data analysis was performed using Flowjo software (Tree Star Inc.).
“Fluorescence minus One” controls were used to establish background level in RBD channels (R-PE and AF647). […]

CO[C@@]12[C@H](COC(N)=O)C3=C(C(=O)C(C)=C(N)C3=O)N1C[C@@H]1N[C@@H]12 [Mitomycin C, mitomycin C]
XPR1/Glut1 ratio normalized to the control condition: increases the XPR1/Glut1 ratio in a dose-dependant manner
